Earlier results on three molecules are cited in patent US10828278B2, “Tesofensine and beta blocker combination formulations” (SANIONA A/S, priority 2015, dated 2020).

One may read the half-life as the time in which the quantity being followed falls by half.

Structures are written as SMILES.

The conditions of data set [1]: for half-life: in vivo.
For data set [2] the following is noted: long-term treatment, corrected for placebo and diet effects, obese patients.
For data set [3] the following is noted: in vivo.

Consider `COc1ccccc1OCCNCC(O)COc1cccc2[nH]c3ccccc3c12` (racemic) [carvedilol, (±)-[3-(9H-carbazol-4-yloxy)-2-hydroxypropyl][2-(2-methoxyphenoxy)ethyl]amine], for which the half-life in data set [1] was 7 to 10 h.
On to `CCOC[C@@H]1[C@@H](c2ccc(Cl)c(Cl)c2)C[C@@H]2CC[C@H]1N2C` [Tesofensine, (1R,2R,3S,5S)-3-(3,4-dichlorophenyl)-2-(ethoxymethyl)-8-methyl-8-azabicyclo[3.2.1]octane], for which, in data set [2], the weight loss result is “about 10%”. Further, in data set [3], the sagittal diameter entry is given as “significantly decreases” and the waist circumference result is “significantly decreases”. Also, the serum half-life result in data set [1] (serum) is reported as “nine”.
Regarding `COCCc1ccc(OCC(O)CNC(C)C)cc1` (stereo not drawn) [metoprolol, 1-(Isopropylamino)-3-[4-(2-methoxyethyl)-phenoxy]-propan-2-ol], in data set [1], the half-life was 3 to 4 h.
